{"source": "patent US8846914B2", "about": "“Compositions to effect neuronal growth” (Neuralstem, Inc., priority 2003, dated 2014)", "format_in_all_cases": "cell-based", "key": {"[1]": {"system": "Differentiating human hippocampal stem cells", "assay": "Neurogenesis dose-response profile", "details": "for activity at 0.001 µM: @1 nM; for activity at 0.3 µM: @300 nM; for activity at 30 µM: @30000 nM", "protocol": "FIG. 4 is a line graph illustrating an example of a neurogenesis dose-response profile of selected compounds. Differentiating human hippocampal stem cells were treated for seven days with varying concentrations of “primary hits”. Subsequently, the cells were fixed, stained with anti-beta tubulin antibody, and positive cells were quantified by Array Scan II. Shown are the number of neurons after each treatment normalized against the no-compound control.\nIn another in vitro assay, compounds are tested as above at varying concentrations to obtain a dose-response curve and EC50 values (effective concentration of the compound which produces 50% of the maximum possible response for that compound).\nPrimary dose-response profiles and secondary functional assays are used to further eliminate compounds from the primary screen based on a lack of dose-dependent effect on neurogenesis, indicated by lack of linearity of dose-response, and in vitro neurotoxicity. The dose-response curve measures neurogenesis over a concentration range of 100 pM to 100 μM. […] Table II contains the summary of EC50 of each compound tested."}, "[2]": {"system": "Differentiating hippocampal human stem cells", "assay": "Long-term treatment in vitro neurogenesis", "details": "Homo sapiens, 504 h, three weeks, 5× with 10 μM, compared to the control", "protocol": "FIG. 11 is a bar graph illustrating an example of in vitro neurogenesis profile of the compounds for a long-term treatment. Differentiating hippocampal human stem cells mere treated with vehicle alone or with the test compounds for three weeks. Increase in cell number was determined compared to the control. Shown are several examples that are effective in continued neurogenesis. Bars represent mean+/−SD from six wells.\nIn another in vitro assay, compounds of the fused imidazole, iminopyrimidine, nicotinamide, aminomethyl phenoxypiperidine and aryloxypiperidine types are evaluated for their effect on the differentiation of the culture-born cells to mature neurons. More particularly, multipotent human hippocampal stem cells are treated in three doses over a one-week period in N2b media and in the presence of an agent of the type mentioned above. The cells are then fed twice weekly for approximately two more weeks in N2b or Neuralbasal+B27 Media (Gibco) and then cells are fixed using 4% paraformaldehyde. Cells are washed 3× with PBS (pH 7.4) and then stained using a nuclear stain (Hoechst or DAPI) and a mature neuronal marker, MAP-2ab (AP-20) antibody. A secondary antibody, Alexa Fluor 488 labeled goat anti-mouse IgG, is used to identify by fluorescent labeling the mature neurons. The fluorescent intensity and number of cells labeled in a multi-plate format can be measured using for instance a Array Scan II (Cellomics) or similar instrumentation.\nEffects of the long-term NSI compound treatment on human hippocampal stem cells in the absence of mitogen is illustrated in FIG. 11. In FIG. 11, differentiating hippocampal human stem cells are treated with vehicle alone or with the test compounds for three weeks. Increase in cell number was determined compared to the control. Bars represent mean+/−SD from six wells. […] Several examples of NSI compounds are shown to be effective in continued neurogenesis. […] These agents comprise a class of compounds, aminopyrimidines, that, as shown previously, inhibited apoptosis. Accordingly, the aminopyrimidine class of compounds appear ideally suited for neurodegenerative long-term diseases including Alzheimer's disease and aging. Neurogenic agents that are neuroprotective like the sixteen compounds identified above might also be effective therapeutics for other neurodegenerative diseases in mammals including, but not limited to, stroke, traumatic brain injury, Parkinson's disease, and mild cognitive impairment."}, "[3]": {"system": "human hippocampal stem cells", "assay": "Neurogenesis, TuJ1 immunostaining / Hoechst (primary screen)", "details": "seven days of compound treatment; for Neuron Number (% of Control): TuJ1+ neurons per area; for Neuron Ratio (% of Control): ratio neuron:total cells (TuJ1/Hoechst)", "source_text": "FIG. 2 is a bar graph illustrating an example of a neurogenesis profile of compounds selected from primary screening. After seven days of compound treatment, the cells were stained with the neuron-specific anti-tubulin IIIb antibody. TuJ1, for neurons and Hoechst for all cell nuclei. Shown are the relative ratio of neuron: total cells for each compound over the vehicle control in percentage. Typical ratio for vehicle control is 40-50% neurons. The ratio can change by either increased differentiation of stem cells to neurons, decreased proliferation of astrocytes, or increased proliferation of neuronal progenitors.\nFIG. 3 is a bar graph illustrating an example of a neurogenesis profile of compounds selected from primary screening. After seven days of compound treatment, the cells were stained with TuJ1 for neurons. The number of TuJ1+ neurons per area was quantified and expressed as a relative value to the vehicle treated control.\nThe final neuron number is detected by immunostaining of the culture with antibodies against neurons and is quantified by counting of the immunopositive neurons and/or by measuring the staining intensity. Therefore, after seven days of compound treatment, the cells are stained with the neuron-specific anti-tubulin IIIb antibody, TuJ1, for neurons and Hoechst for all cell nuclei. The number of TuJ1+ neurons per area is quantified and expressed as a value relative to the vehicle-treated control of Hoechst-stained cells. In this regard, the medium is removed from the wells by decanting and blotting the plates on paper towels. The cells are then fixed in 100 μl of 4% paraformaldehyde per well for thirty minutes at room temperature. The cells are washed three times with 400 μl per well of phosphate-buffered saline (PBS) at pH 7.5 for approximately ten minutes per wash. The plates are then stored at 4° C. in PBS or used immediately for staining.\nThe cells are subsequently stained with antibodies against neuron-specific antigens according to standard procedures. The staining process includes decanting the PBS and blocking the cells with 100 μl of 5% Normal Goat Serum (NGS) in PBS for one hour at room temperature. The NGS/PBS is decanted and the plates are blotted on a paper towel. The cells are then permeabilized with 0.1% Triton X-100 in PBS for 30 minutes at room temperature.\nTypical neuron-specific antigens include Type III-beta tubulin and MAP-2c. The total cell number in each well was quantified by staining the cultures with a nuclear dye such as DAPI or Hoechst according to standard procedures. Therefore, once the cells are permeabilized, 20 μl of TuJ1, monoclonal antibody against neuronal class 111 β-tubulin (CoVance (BabCo) MMS-435P) and 32 μl of anti-GFAP polyclonal (DAKO Z0334) are added to and mixed of PBS with 5% NGS. Final dilutions of TuJ1 and anti-GFAP are 1:400 and 1:250, respectively. 90 μl of the antibody solution is added to each well except two eleventh column. 90 μl of PBS/5% NGS is added to the eleventh column and no cells are added to the twelfth column. The plate(s) are sealed with parafilm and incubated at 4° C. overnight.\nAfter incubating the cells overnight, the antibody solution is decanted and 200 μl of PBS/0.1% Triton X-100 is added to the wells. The plate(s) are placed on a shaker and incubated at room temperature with gentle shaking for ten minutes. The cells are again washed with the PBS/Triton X-100 solution another two times.\nFollowing staining with TuJ1 and anti-GFAP, 20 μl of Alexa Fluor 488 labeled goat anti-moose IgG (H+L) (Molecular Probes A-11001) and 100 μl of LRSC-IgG, goat anti-rabbit (Jackson Immune 111-295-144) is added and mixed with 10 ml of PBS/5% NGS. 100 μl of the resulting antibody solution is added to each well. The plate(s) are covered with foil and incubated with gentle shaking for up to one hour at room temperature. The cells are again washed as described above with PBS and an Triton X-100. […]"}, "[4]": {"details": "Homo sapiens, Neuron, 168 h, read-out: % Neuron Ratio Eff"}, "[5]": {"details": "Homo sapiens, Neuron, 168 h, normalized against no-compound control, read-out: Neuron# Eff"}, "[6]": {"details": "Homo sapiens, Neuron, 168 h, seven days, 100 pM to 100 μM"}, "[7]": {"details": "read-out: Long Term Treatment #Neur"}, "[8]": {"details": "read-out: Long Term Treatment Neur Ratio"}, "[9]": {"details": "read-out: Long Term Treatment Prolif"}}, "note": "Like-named read-outs stand apart in the source and are kept apart here."}
{"smiles": "O=C(COc1ccccc1)NCc1nc2ccccn2c1NCC1CCCO1", "note": "(stereo not drawn) [NSI-183]", "values": [{"measurement": "activity at 0.001 µM", "setting": "[1]; [4]", "result": 112, "unit": "%"}, {"measurement": "activity at 0.3 µM", "setting": "[1]; [5]", "result": 140, "unit": "%"}, {"measurement": "EC50", "setting": "[1]; [6]", "result": 0.05, "unit": "nM"}, {"measurement": "% Neuron Ratio EC50", "setting": "[1]; seven days, 100 pM to 100 μM", "result": "No Curve"}, {"measurement": "activity at 10 µM", "setting": "[2]; [7]", "result": "148 ± 30", "unit": "%"}, {"measurement": "activity at 10 µM", "setting": "[2]; [8]", "result": "111 ± 16", "unit": "%"}, {"measurement": "activity at 10 µM", "setting": "[2]; [9]", "result": "99 ± 19", "unit": "%"}, {"measurement": "Neuron Number (% of Control)", "setting": "[3]", "result": "128 ± 13 % of Control"}, {"measurement": "Neuron Ratio (% of Control)", "setting": "[3]", "result": "131 ± 4 % of Control"}]}
{"smiles": "CS(=O)(=O)N(CC(=O)NCc1nc2ccccn2c1NCc1ccccc1)c1ccccc1", "note": "[NSI-185]", "values": [{"measurement": "activity at 3 µM", "setting": "[1]; Homo sapiens, Neuron, 168 h, @3000 nM, normalized against no-compound control, read-out: Neuron# Eff", "result": 132, "unit": "%"}, {"measurement": "activity at 30 µM", "setting": "[1]; [4]", "result": 112, "unit": "%"}, {"measurement": "EC50", "setting": "[1]; [6]", "result": 786, "unit": "nM"}, {"measurement": "activity at 10 µM", "setting": "[2]; [7]", "result": "155 ± 30", "unit": "%"}, {"measurement": "activity at 10 µM", "setting": "[2]; [8]", "result": "105 ± 19", "unit": "%"}, {"measurement": "activity at 10 µM", "setting": "[2]; [9]", "result": "83 ± 25", "unit": "%"}, {"measurement": "Neuron Number (% of Control)", "setting": "[3]", "result": "141 ± 70 % of Control"}, {"measurement": "Neuron Ratio (% of Control)", "setting": "[3]", "result": "135 ± 15 % of Control"}]}
{"smiles": "CC(C)CCNc1ncccc1C(=O)N1CCN(Cc2ccccc2)CC1", "note": "[NSI-189]", "values": [{"measurement": "activity at 30 µM", "setting": "[1]; [5]", "result": 165, "unit": "%"}, {"measurement": "activity at 30 µM", "setting": "[1]; [4]", "result": 141, "unit": "%"}, {"measurement": "EC50", "setting": "[1]; [6]", "result": 253, "unit": "nM"}, {"measurement": "activity at 10 µM", "setting": "[2]; [7]", "result": "110 ± 26", "unit": "%"}, {"measurement": "activity at 10 µM", "setting": "[2]; [8]", "result": "96 ± 19", "unit": "%"}, {"measurement": "activity at 10 µM", "setting": "[2]; [9]", "result": "144 ± 17", "unit": "%"}, {"measurement": "Neuron Number (% of Control)", "setting": "[3]", "result": "102 ± 41 % of Control"}, {"measurement": "Neuron Ratio (% of Control)", "setting": "[3]", "result": "130 ± 19 % of Control"}]}
{"smiles": "CCN(CCNC(=O)c1cccnc1NCCC(C)C)Cc1cccnc1", "note": "[NSI-190]", "values": [{"measurement": "activity at 0.001 µM", "setting": "[1]; [4]", "result": 128, "unit": "%"}, {"measurement": "activity at 0.3 µM", "setting": "[1]; [5]", "result": 165, "unit": "%"}, {"measurement": "EC50", "setting": "[1]; [6]", "result": 13, "unit": "nM"}, {"measurement": "activity at 10 µM", "setting": "[2]; [7]", "result": "121 ± 19", "unit": "%"}, {"measurement": "activity at 10 µM", "setting": "[2]; [8]", "result": "100 ± 12", "unit": "%"}, {"measurement": "activity at 10 µM", "setting": "[2]; [9]", "result": "98 ± 11", "unit": "%"}, {"measurement": "Neuron Number (% of Control)", "setting": "[3]", "result": "130 ± 22 % of Control"}, {"measurement": "Neuron Ratio (% of Control)", "setting": "[3]", "result": "127 ± 9 % of Control"}]}
